Measured values published in patent US20040167330A1, “Novel chelating agents and conjugates thereof, their synthesis and use as diagnois and therapeutic agents” (priority 2004, published 2004).

Experiments:
Type in all cases: physicochemical
[1] = Formation of ^90Y-yttrium complex, radiochemical yield by TLC/HPLC; conditions: for radiochemical yield: 25° C.
Experimental: Purified DO3A-P^BnNH2 was dissolved in demineralised water at a concentration of 9×10^−5 mol/l. 0.1 ml of this solution were transferred into a small reaction vial (PE). 0.1 ml ^90Y-yttrium chloride (YCl3) in 0.1 M HCl and 0.1 ml ammonium acetate buffer, pH 5.7, were added. The reaction solutions were mixed well. pH values were measured continuously while preparing the solution. 24 identical solutions were prepared accordingly and stored at 25° C. and 37° C. respectively.
Samples were taken after 15 min, 30 min, 45 min, 60 min, 90 min and 120 min and analyzed by thin layer chromatography using silica gel (POLYGRAM SIL G/UV254) or, preferably, paper (Whatman No. 1) as solid phase. TLC was run using either solvent I: 0.1 N ammonium acetate solution or solvent II: 3% sodium chloride solution as developing solution. In parallel, samples (20 μl) were analyzed by gel filtration using HPLC. The HPLC-system comprised a gamma detector (Berthold LB 506) and a UV/VIS spectrometer (Waters 486) installed in two flow through cells, respectively.
Temperature- and time-dependent studies have shown a very short reaction time for the complex formation of a ^90Y-Yttrium-DO3A-complex.
Furthermore, the effect of pH and ligand concentration on radiochemical yield was evaluated. Table 5 summarizes the results relating to the variation of pH between pH 2.0 and pH 8.9 while maintaining a constant ratio of DO3A-P^BnNH2 and Y of 3:1 and a reaction time of 60 min at 25° C. Accordingly, best labeling results are achieved at pH values of 4.9-8.0. Table 6 summarizes the results relating to the variation of the ligand concentration DO3A-P^BnNH2: Y between 1:1 up to 7:1 while maintaining a constant pH range (pH 5.2) and reaction time of 60 min at 25° C.

[2] = Relaxation measurements of gadolinium(III) complex solutions; conditions: gadolinium(III) complex prepared in solution from GdCl3.6H2O; approx. pH 7; at 10 MHz
Experimental: Solution was stirred for 1 h at room temperature and pH was set to approx. pH 7 by careful addition of solid KOH. Thus prepared solution as well as other solutions of different concentration which were prepared by a similar approach (all containing known amount of water and gadolinium(III)) were used for relaxation measurements. The solutions gave relaxivity 7.86 mmol^−1 s^−1 (at 10 MHz).
Solution of gadolinium(III) complex of compound 1 for relaxation measurements were prepared similarly to Example 51. The solutions gave relaxivity 7.54 mmol-1 s^−1 (at 10 MHz). Exchange half-life of coordinated water molecule 70 ns was determined (from temperature dependence of ^17O NMR parameters).

[3] = Formation of ^90Y-yttrium complex, radiochemical yield by TLC/HPLC; conditions: reaction time 0 min; 25° C.; [Y] = 1,2 · 10^−3 mol/l; ratio of ligand: Y = 1:1; pH = 5.5

pH values at which best labeling results are achieved ([1]; ^90Y, ratio of DO3A-P^BnNH2 and Y of 3:1, reaction time of 60 min at 25° C., pH varied 2.0 to 8.9): 4.9-8.0
radiochemical yield ([1]; ratio of ligand:Y 1:1, [Y] = 1.2 · 10^−3 mol/l, pH = 5.2, reaction time 60 min): 94%
radiochemical yield ([1]; reaction time 15 min, [Y] = 1,2 · 10^−3 mol/l, ratio of ligand: Y = 1:1, pH = 5.5): 97%
relaxivity [2]: 7.86 mmol⁻¹ s⁻¹
radiochemical yield [3]: 88%
Structure (SMILES): Nc1ccc(CP(=O)(O)CN2CCN(CC(=O)O)CCN(CC(=O)O)CCN(CC(=O)O)CC2)cc1 [Compound 11]
